Laboratory results: patent US9284543B2, “Neutral active soluble truncated PH20 polypeptides and uses thereof” (Halozyme, Inc., priority 2008, dated 2016)

Tests used:
[1] = tested on: HZ24-2B2 cells expressing rHuPH20; assay: Treatment of rHuPH20-expressing cells with glycosylation inhibitors; assay type: cell-based, Chinese Hamster; conditions: for Effect on PH20 activity (in words): tissue culture media and inside the cell
Method: Briefly, 1×10^6 HZ24-2B2 cells expressing rHuPH20 (see Example 14 below) were seeded in 24 mL complete CD-CHO medium in two 125 mL flasks. Tunicamycin (dissolved in DMSO) or Kifunensine (freshly dissolved in water) was added to a final concentration of 5 μg/mL (containing 12 μL DMSO). As a control, one flask was seeded with 1×10^6 HZ24-2B2 cells expressing rHuPH20 and 12 μL DMSO was added as a vehicle control. Following addition of either tunicamycin or kifunensine, the cells were incubated for 4-6 hours at 37° C. with 5% CO2. Following expression, a 2 mL culture was removed and centrifuged for 5 minutes at 500 g. The supernatant was stored at 4° C. and the cell pellets were stored at −20° C. The remaining 22 mL cultures were centrifuged for 5 minutes at 500 g. The supernatant was stored at 4° C. The cells were resuspended in 22 mL complete CD-CHO medium in the original two 125 mL flasks. Tunicamycin or Kifunensine was added to the culture at a final concentration of 5 μg/mL and the cells were incubated at 37° C. with 5% CO2. Two mL (2 mL) cultures were removed from each flask at approximately every 24 hours post changing medium. For each time point, the supernatant was stored at 4° C. and the cell pellets were stored at −20° C. The expression of rHuPH20 was analyzed by Western blot analysis and the hyaluronidase activity was measured using the biotinylated HA enzymatic assay (as described in Examples 3 and 5 above).

[2] = Microtiter hyaluronidase activity assay with biotinylated-hyaluronic acid; assay type: biochemical; conditions: Table 6, 72 hour post transfection supernatant
Method: In Example 4, the hyaluronidase activity of truncated human PH20 hyaluronidase is determined using biotinylated hyaluronic acid. The free carboxyl groups on the glucuronic acid residues of hyaluronic acid are biotinylated, and the biotinylated hyaluronic acid substrate is covalently coupled to a microtiter plate. Following incubation with hyaluronidase, the residual biotinylated hyaluronic acid substrate is detected using an avidin-peroxidase reaction, and compared to that obtained following reaction with hyaluronidase standards of known activity. […] The sensitivity permits rapid measurement of hyaluronidase activity from cultured cells and biological samples with an inter-assay variation of less than 10%.
In this example, the human PH20 hyaluronidase carboxy-terminus deletion mutants were tested for their PH20 hyaluronidase activity using a microtiter assay with biotinylated-hyaluronic acid (biotinylated-HA or bHA). The human PH20 hyaluronidase carboxy-terminus deletion mutants were tested for hyaluronidase activity at both pH 7.4 and pH 5.5.
In short, a 4×BH 96-well plate was coated with biotinylated-HA (1.1 MDa). The 72 hour post transfection supernatant from cells transfected with human PH20 hyaluronidase carboxy-terminus deletion mutants was diluted in buffer at either pH 7.4 or pH 5.5 and added to individual wells of the plate and allowed to incubate at 37° C. for 90 minutes. The reaction was terminated by addition of 4M guanidine HCl. The wells were washed 4× with Phosphate Buffered Saline with Tween20 (PBST) to remove any digested biotinylated-HA followed by addition of streptavidin-HRP for 1 hour at room temperature. The wells were washed 4× with PBST and the plate was developed with TMB. The plate was read at 450 nm using an ELISA plate reader. Hyaluronidase activity (in Units/mL) was determined by interpolating the measured absorbance at 450 nm with a hyaluronidase reference standard curve. Full length mature human PH20 hyaluronidase and untransfected CHO cells were used as positive and negative controls.

Tunicamycin
Effect on cell viability (in words) ([1]; 5 μg/mL): complete loss of cell viability
PH20 activity ([1]; Cell Pellets, With Tunicamycin, 0 hours): 34.50 U/mL
PH20 activity ([1]; Cell Pellets, With Tunicamycin, 1 hours): 38.00 U/mL
PH20 activity ([1]; Cell Pellets, With Tunicamycin, 2 hours): 34.00 U/mL
PH20 activity ([1]; Cell Pellets, With Tunicamycin, 4 hours): 18.00 U/mL
PH20 activity ([1]; Cell Pellets, With Tunicamycin, 25 hours): 1.00 U/mL
PH20 activity ([1]; Cell Pellets, With Tunicamycin, 49 hours): 0.80 U/mL
PH20 activity ([1]; Cell Pellets, With Tunicamycin, 73 hours): 0.30 U/mL
PH20 activity ([1]; Cell Pellets, With Tunicamycin, 91 hours): 0.30 U/mL
PH20 activity ([1]; Tissue Culture Media, With Tunicamycin, 0 hours): 0.50 U/mL
PH20 activity ([1]; Tissue Culture Media, With Tunicamycin, 1 hours): 2.80 U/mL
PH20 activity ([1]; Tissue Culture Media, With Tunicamycin, 2 hours): 5.00 U/mL
PH20 activity ([1]; Tissue Culture Media, With Tunicamycin, 4 hours): 8.80 U/mL
PH20 activity ([1]; Tissue Culture Media, With Tunicamycin, 25 hours): 5.80 U/mL
PH20 activity ([1]; Tissue Culture Media, With Tunicamycin, 49 hours): 6.80 U/mL
PH20 activity ([1]; Tissue Culture Media, With Tunicamycin, 73 hours): 7.80 U/mL
PH20 activity ([1]; Tissue Culture Media, With Tunicamycin, 91 hours): 7.50 U/mL
Viable Cells ([1]; With Tunicamycin 5 μg/mL, 0 hours): 1.04 ×10^6
Viable Cells ([1]; With Tunicamycin 5 μg/mL, 1 hours): 1.04 ×10^6
Viable Cells ([1]; With Tunicamycin 5 μg/mL, 2 hours): 1.04 ×10^6
Viable Cells ([1]; With Tunicamycin 5 μg/mL, 4 hours): 0.910 ×10^6
Viable Cells ([1]; With Tunicamycin 5 μg/mL, 25 hours): 1.08 ×10^6
Viable Cells ([1]; With Tunicamycin 5 μg/mL, 49 hours): 0.200 ×10^6
Viable Cells ([1]; With Tunicamycin 5 μg/mL, 73 hours): 0.080 ×10^6
Viable Cells ([1]; With Tunicamycin 5 μg/mL, 91 hours): 0 ×10^6
Accumulation of deglycosylated human PH20 inside the cell ([1]; one hour of treatment, SDS-PAGE mobility shift to approximately 56 kDa in cell pellet fractions): accumulation of deglycosylated human PH20 hyaluronidase inside the cell
Effect on PH20 activity (in words) ([1]; 5 μg/mL): inhibits PH20 activity

O=C1N[C@@H]2[C@@H](O)[C@@H](O)[C@H](O)[C@@H](CO)N2C1=O [Kifunensine]
PH20 activity ([1]; Cell Pellets, With Kifunensine, 0 hours): 22.25 U/mL
PH20 activity ([1]; Cell Pellets, With Kifunensine, 6 hours): 21.25 U/mL
PH20 activity ([1]; Cell Pellets, With Kifunensine, 24 hours): 27.75 U/mL
PH20 activity ([1]; Cell Pellets, With Kifunensine, 50 hours): 43 U/mL
PH20 activity ([1]; Cell Pellets, With Kifunensine, 72 hours): 98.75 U/mL
PH20 activity ([1]; Cell Pellets, With Kifunensine, 96 hours): 208.75 U/mL
PH20 activity ([1]; Cell Pellets, With Kifunensine, […]): 497.25 U/mL
PH20 activity ([1]; Tissue Culture Media, With Kifunensine, 0 hours): 0.4 U/mL
PH20 activity ([1]; Tissue Culture Media, With Kifunensine, 6 hours): 23.85 U/mL
PH20 activity ([1]; Tissue Culture Media, With Kifunensine, 24 hours): 129.6 U/mL
PH20 activity ([1]; Tissue Culture Media, With Kifunensine, 50 hours): 299.7 U/mL
PH20 activity ([1]; Tissue Culture Media, With Kifunensine, 72 hours): 535.95 U/mL
PH20 activity ([1]; Tissue Culture Media, With Kifunensine, 96 hours): 945 U/mL
PH20 activity ([1]; Tissue Culture Media, With Kifunensine, […]): 2968.65 U/mL
Viable Cells ([1]; With Kifunensine 5 μg/mL, 0 hours): 1 ×10^6
Viable Cells ([1]; With Kifunensine 5 μg/mL, 6 hours): 1 ×10^6
Viable Cells ([1]; With Kifunensine 5 μg/mL, 24 hours): 1.2 ×10^6
Viable Cells ([1]; With Kifunensine 5 μg/mL, 50 hours): 2.1 ×10^6
Viable Cells ([1]; With Kifunensine 5 μg/mL, 72 hours): 3 ×10^6
Viable Cells ([1]; With Kifunensine 5 μg/mL, 96 hours): 3.7 ×10^6
Viable Cells ([1]; With Kifunensine 5 μg/mL, […]): 5.8 ×10^6
Effect on PH20 activity (in words) ([1]; 5 μg/mL): did not affect the activity of PH20
Effect on expression and secretion of rHuPH20 ([1]; western blot analysis, 5 μg/mL): inhibited the expression and secretion of rHuPH20

B1: VASL + PLC: full length human PH20 (SEQ ID NO: 108) with PLC treatment (protein, listed as Homo sapiens)
chain: LNFRAPPVIPNVPFLWAWNAPSEFCLGKFDEPLDMSLFSFIGSPRINATGQGVTIFYVDRLGYYPYIDSITGVTVNGGIPQKISLQDHLDKAKKDITFYMPVDNLGMAVIDWEEWRPTWARNWKPKDVYKNRSIELVQQQNVQLSLTEATEKAKQEFEKAGKDFLVETIKLGKLLRPNHLWGYYLFPDCYNHHYKKPGYNGSCFNVEIKRNDDLSWLWNESTALYPSIYLNTQQSPVAATLYVRNRVREAIRVSKIPDAKSPLPVFAYTRIVFTDQVLKFLSQDELVYTFGETVALGASGIVIWGTLSIMRSMKSCLLLDNYMETILNPYIINVTLAAKMCSQVLCQEQGVCIRKNWNSSDYLHLNPDNFAIQLEKGGKFTVRGKPTLEDLEQFSEKFYCSCYSTLSCKEKADVKDTDAVDVCIADGVCIDAFLKPPMETEEPQIFYNASPSTLSATMFIVSILFLIISSVASL
modifications: PLC treatment; Mature Human PH20 36-509
pH 5.5 Activity ([2]; pH 5.5): 2.313 Units/ml
pH 7.4 Activity ([2]; pH 7.4): 3.96 Units/ml
